{"source": "patent US8252588B2", "about": "“Stem cells having increased sensitivity to SDF-1 and methods of generating and using same” (Yeda Research and Development Co. Ltd., priority 2003, dated 2012)", "key": {"[1]": {"tested_on": "CXCR4", "test": "Human CXCR4 staining of peripheral blood MNC of chimeric mice, flow cytometry", "assay_type": "in vivo", "settings": "CCl4 treated chimeric mice", "experimental": "(§1) Liver injury—Mice were injected intraperitoneally (IP) with 10, 15 or 30 μl/mouse of CCl4 and liver samples were collected within a few hours, or 1-2 days following injection, as indicated. In homing assays, mice were intraveneously (IV) transplanted with human MPB CD34^+ cells (0.6×10^6 cells/mouse) 4 hours prior to liver collection. Homing was blocked by preincubation of transplanted cells with 10 μg of anti CXCR4/mouse or by IP injection of 100 μg/mouse of a specific MMP2/9 inhibitor III (CalBiochem, catalogue #444251). Human progenitors in the blood circulation of engrafted mice transplanted a month before with human CB MNC (20×10^6 cells/mouse) were quantified by seeding 2×10^5 mononuclear cells/ml in colony forming unit assay as described [Kollet (2001) Blood 97:3283-3291]. CXCR4 expression was determined by flow cytometry."}, "[2]": {"tested_on": "human colony forming progenitors", "test": "Human progenitors in blood circulation of engrafted mice, colony forming unit assay", "assay_type": "in vivo", "settings": "engrafted NOD/SCID mice, one day after single injection of 10 μl CCl4", "experimental": "Data summarize three independent experiments.\nas §1"}, "[3]": {"tested_on": "human CD34+ cells", "test": "Four hour homing of human CD34+ cells to the CCl4-injured liver of NOD/SCID mice", "assay_type": "in vivo", "settings": "non-irradiated NOD/SCID mice, 15 μl CCl4 24 hours prior, four hour assay", "experimental": "as §1"}, "[4]": {"tested_on": "MMP-2/9", "test": "Zymography assay of MMP-2/9 activity in liver of CCl4 injected mice", "assay_type": "in vivo", "settings": "CCl4 treated NOD/SCID mice"}, "[5]": {"tested_on": "human CD34+ cells", "test": "Four hour homing of CD34+ cells to the liver of non-irradiated mice, local hepatic injection of human SDF-1", "assay_type": "in vivo", "settings": "non-irradiated NOD/SCID, human SDF-1 injected into hepatic parenchyma, IV infusion of cells", "experimental": "FIG. 1a is a histogram showing inhibition of homing of human CB or MPB enriched CD34^+ cells to the murine BM, spleen and liver by neutralizing CXCR4 antibodies. Data presents inhibition as percentage of control. P≦0.008, comparing anti CXCR4 treated samples to control counterparts. […] Human SDF-1 was injected to the liver parenchyma as indicated. Cells were collected from the injected lobe to determine the homing of human CD34^+ cells.\nMice—NOD/SCID mice were bred and housed as previously described [Kollet (2001) Blood 97:3283-3291]. All experiments were approved by the animal care committee of the Weizmann Institute. Mice were sublethally irradiated (i.e., 375 cGy) as indicated, 24 hours prior to transplantation. Non-irradiated mice were used when local hepatic injection of SDF-1 was effected.\nCXCR4 neutralization—Human CD34^+ cells were pre-incubated with anti human CXCR4 neutralizing mAb (10 μg/0.5×10^6 cells, 12G5, R&D) and were injected (0.5-0.6×10^6 CD34^+ cells per mouse) into the tail vein without washing. Mice were killed 4 hours, 16 hours, or 5-6 weeks following cell transplantation as indicated. Single cell suspensions of liver tissues were washed thoroughly with PBS. Homing of human cells was determined as described [Kollet (2001) Blood 97:3283-3291], acquiring 1.5×10^6 cells/sample."}, "[6]": {"tested_on": "CXCR4", "test": "Surface CXCR4 expression on CD34+ cells by FACS", "assay_type": "cell-based, human", "settings": "CB CD34+ cells, 5 hours incubation", "experimental": "CB CD34^+ cells were incubated for 5 hours with RPMI growth medium and HT1080 conditioned medium. Cells were stained with isotype control antibody as a negative control (Isot), or with CXCR4 antibody. Representative data of 3 experiments is shown.\nHuman cells—Cord blood (CB) cells and adult mobilized peripheral blood (MPB) cells were obtained after informed consent in accordance with procedures approved by the human ethics committee of the Weizmann Institute. CD34^+ cell enrichment was effected using magnetic bead separation as previously described [Kollet (2001) Blood 97:3283-3291]. CXCR4 expression was determined by flow cytometry using purified anti human CXCR4 (clone 12G5, R&D, Minneapolis, Minn.) and secondary F(ab′)2 fragment of goat anti mouse IgG FITC (Jackson, West Grove, Pa.)."}}, "data": [{"molecule": "ClC(Cl)(Cl)Cl", "note": "[CCl4, Carbon tetrachloride]", "values": [{"measurement": "CXCR4 expression on human MNC cells in the circulation", "setting": "[1]", "result": "increased level of CXCR4 expression"}, {"measurement": "recruitment of human colony forming progenitors from bone marrow to the circulation", "setting": "[2]", "result": "induced the recruitment"}, {"measurement": "homing of human CD34+ cells to the injured liver", "setting": "[3]", "result": "rapidly induced homing"}, {"measurement": "MMP-9 expression in the liver", "setting": "[4]", "result": "emergence of MMP-9 expression"}, {"measurement": "activity of MMP-2 in the liver", "setting": "[4]", "result": "increased activity"}]}, {"molecule": "SDF-1: chemokine stromal derived factor, ligand of CXCR4", "values": [{"measurement": "homing of CD34+ progenitors to the liver", "setting": "[5]", "result": "increased the homing"}]}, {"molecule": "purified MMP-2: purified recombinant MMP-2 (protein, UniProt P08253 110-660, looked up) 72 kDa type IV collagenase: YNFFPRKPKWDKNQITYRIIGYTPDLDPETVDDAFARAFQVWSDVTPLRFSRIHDGEADIMINFGRWEHGDGYPFDGKDGLLAHAFAPGTGVGGDSHFDDDELWTLGEGQVVRVKYGNADGEYCKFPFLFNGKEYNSCTDTGRSDGFLWCSTTYNFEKDGKYGFCPHEALFTMGGNAEGQPCKFPFRFQGTSYDSCTTEGRTDGYRWCGTTEDYDRDKKYGFCPETAMSTVGGNSEGAPCVFPFTFLGNKYESCTSAGRSDGKMWCATTANYDDDRKWGFCPDQGYSLFLVAAHEFGHAMGLEHSQDPGALMAPIYTYTKNFRLSQDDIKGIQELYGASPDIDLGTGPTPTLGPVTPEICKQDIVFDGIAQIRGEIFFFKDRFIWRTVTPRDKPMGPLLVATFWPELPEKIDAVYEAPQEEKAVFFAGNEYWIYSASTLERGYPKPLTSLGLPPDVQRVDAAFNWSKNKKTYIFAGDKFWRYNEVKKKMDPGFPKLIADAWNAIPDNLDAVVDLQGGGHSYFFKGAYYLKLENQSLKSVKFGSIKSDWLGC", "values": [{"measurement": "surface CXCR4 expression on enriched human CD34+ cells", "setting": "[6]", "result": "upregulation of CXCR4"}]}]}
